Values after ≈ are worked out from the molar mass of the structure shown. Read-outs that look alike come from different tables or passages of the source. One block for each compound: values may come before it.
Experiments:
Format in all cases: cell-based
Aspergillus niger [1] = assay: In Vitro Vial Test (malt broth); conditions: 168 h; for MIC: read-out: Lowest Effective Concentration
Escherichia coli [2] = assay: In Vitro Vial Test (nutrient broth); conditions: 168 h; for MIC: read-out: Lowest Effective Concentration; for minimal effective concentration: read-out: Lowest Effective Concentration (partial control)
Penicillium italicum [3] = assay: In Vitro Vial Test (malt broth); conditions: 168 h; for MIC: read-out: Lowest Effective Concentration; for minimal effective concentration: read-out: Lowest Effective Concentration (partial control)
Staphylococcus aureus [4] = assay: In Vitro Vial Test (nutrient broth); conditions: 168 h; for MIC: read-out: Lowest Effective Concentration
Aspergillus niger [5] = assay: Microbiocide Testing Procedure Using Agar; conditions: potato dextrose agar, 30° C., read-out: Minimum Inhibitory Concentration
Protocol: (§1) This test measures the bactericidal and fungicidal properties of a compound when in contact with a growing bacterium or fungi in an artificial medium. […] The treated agar mixture is then allowed to come to room temperature and solidify. Cells of the particular organism are then streaked on the surface of the solidified agar and are then incubated for such lengths of time that untreated samples containing no toxicant show luxurious growth typical of the particular organism. This time varies from 24 hours to one week, depending on the particular organism. The fungi are incubated at 30° C. and the bacteria are incubated at 37° C. Nutrient agar is used as the medium in this test for the bacteria. Potato dextrose agar is used as the medium for the fungi.

Staphylococcus aureus [6] = assay: Microbiocide Testing Procedure Using Agar; conditions: nutrient agar, 37° C., read-out: Minimum Inhibitory Concentration
Protocol: as §1

Escherichia coli [7] = assay: Microbiocide Testing Procedure Using Agar; conditions: nutrient agar, 37° C., read-out: Minimum Inhibitory Concentration
Protocol: as §1

Penicillium italicum [8] = assay: Microbiocide Testing Procedure Using Agar; conditions: potato dextrose agar, 30° C.
Protocol: as §1

Escherichia coli [9] = assay: Soap Plug Test; conditions: 1% in sodium stearate soap plug, 37° C., 17 hours
Staphylococcus aureus [10] = assay: Soap Plug Test; conditions: 1% in sodium stearate soap plug, 37° C., 17 hours
Escherichia coli [11] = assay: Detergent Formulation Test; conditions: washed cotton cloth, compounds at 0.2% in Tide detergent, 37° C.
[12] = system: Brevibacterium ammoniagenes; assay: Detergent Formulation Test; conditions: washed cotton cloth, compounds at 0.2% in Tide detergent, 37° C.
Staphylococcus aureus [13] = assay: Detergent Formulation Test; conditions: washed cotton cloth, compounds at 0.2% in Tide detergent, 37° C.
[14] = system: Trichophyton mentagrophytes; assay: Detergent Formulation Test; conditions: washed cotton cloth, compounds at 0.2% in Tide detergent, 37° C.
[15] = nutrient broth, one week, value printed in: partial control at this concentration
[16] = malt broth, one week, value printed in: partial control at this concentration

SMILES: C=CCNC(=O)Oc1cccc(NC(=O)CBr)c1 [Compound 4]
- MIC (Aspergillus niger [1]): > 50 µg/mL
- MIC (Escherichia coli [2]): > 50 µg/mL
- MIC (Penicillium italicum [3]): 50 µg/mL (≈ 160 µM)
- MIC (Staphylococcus aureus [4]): 50 µg/mL (≈ 160 µM)

SMILES: CC(C)NC(=O)Oc1cccc(NC(=O)CCl)c1 [B, reference compound]
- MIC (Aspergillus niger [1]): > 500 µg/mL
- MIC (Escherichia coli [2]): > 500 µg/mL
- MIC (Penicillium italicum [3]): > 500 µg/mL
- MIC (Staphylococcus aureus [4]): > 500 µg/mL

- MIC (Aspergillus niger [1]; malt broth, one week): > 500 µg/mL
SMILES: O=C(CCl)Nc1cccc(O)c1 [A, reference compound]
- minimal effective concentration (Escherichia coli [2]; [15]): 250 µg/mL
- minimal effective concentration (Penicillium italicum [3]; [16]): 500 µg/mL
- minimal effective concentration (Staphylococcus aureus [4]; nutrient broth, one week, value printed in: partial control at this concentration, read-out: Lowest Effective Concentration (partial control)): 250 µg/mL

SMILES: CNC(=O)Oc1cccc(NC(=O)CBr)c1 [Compound 2, 3'-N-methyl carbamoyloxy bromoacetanilide]
- MIC (Aspergillus niger [1]): > 50 µg/mL
- MIC (Escherichia coli [2]): 50 µg/mL (≈ 174 µM)
- MIC (Penicillium italicum [3]): > 50 µg/mL
- MIC (Staphylococcus aureus [4]): 50 µg/mL (≈ 174 µM)

- MIC (Aspergillus niger [1]; malt broth, one week): 50 µg/mL (≈ 217 µM)
- MIC (Escherichia coli [2]; nutrient broth, one week): 25 µg/mL (≈ 109 µM)
- MIC (Penicillium italicum [3]; malt broth, one week): 50 µg/mL (≈ 217 µM)
- MIC (Staphylococcus aureus [4]; nutrient broth, one week): 25 µg/mL (≈ 109 µM)
SMILES: O=C(CBr)Nc1ccc(O)cc1 [Compound 6]

- MIC (Aspergillus niger [1]; malt broth, one week): > 50 µg/mL
- MIC (Escherichia coli [2]; nutrient broth, one week): > 50 µg/mL
- MIC (Penicillium italicum [3]; malt broth, one week): 50 µg/mL (≈ 143 µM)
- MIC (Staphylococcus aureus [4]; nutrient broth, one week): 50 µg/mL (≈ 143 µM)
SMILES: CC(C)CS(=O)(=O)Oc1cccc(NC(=O)CBr)c1 [Compound 7, m-Isobutylsulfonyloxy bromoacetanilide]
- MIC (Aspergillus niger [5]): > 50 µg/mL
- MIC (Staphylococcus aureus [6]): 50 µg/mL (≈ 143 µM)
- MIC (Escherichia coli [7]): > 50 µg/mL
- MIC (Penicillium italicum [8]; value printed in, not explained in Table III (Table II: partial control), read-out: Minimum Inhibitory Concentration (value in parentheses)): 10 µg/mL (≈ 28.6 µM)

SMILES: CC(C)NC(=O)Oc1cccc(NC(=O)CBr)c1 [Compound 3]
- minimal effective concentration (Aspergillus niger [1]; read-out: Lowest Effective Concentration (partial control)): 100 µg/mL
- Zone of Biological Inhibition (radius) (Escherichia coli [9]): 2 mm
- Zone of Biological Inhibition (radius) (Staphylococcus aureus [10]): 6-8 mm
- MIC (Escherichia coli [2]): 25 µg/mL (≈ 79.3 µM)
- minimal effective concentration (Penicillium italicum [3]): 25 µg/mL
- MIC (Staphylococcus aureus [4]): 10 µg/mL (≈ 31.7 µM)

SMILES: O=C(Nc1ccc(Cl)cc1)Nc1ccc(Cl)c(Cl)c1 [TCC, 3,4,4-trichlorocarbanilide, reference compound]
- Zone of Biological Inhibition (radius) (Escherichia coli [9]): 0 mm
- Zone of Biological Inhibition (radius) (Staphylococcus aureus [10]): 5 mm

- MIC (Aspergillus niger [1]; malt broth, one week): > 50 µg/mL
- MIC (Escherichia coli [2]; nutrient broth, one week): > 50 µg/mL
- MIC (Penicillium italicum [3]; malt broth, one week): 50 µg/mL (≈ 135 µM)
- MIC (Staphylococcus aureus [4]; nutrient broth, one week): 50 µg/mL (≈ 135 µM)
SMILES: O=C(CBr)Nc1cccc(OS(=O)(=O)c2ccccc2)c1 [Compound 8, m-Phenylsulfonyloxy bromoacetanilide]
- MIC (Aspergillus niger [5]): > 50 µg/mL
- MIC (Staphylococcus aureus [6]): 10 µg/mL (≈ 27 µM)
- MIC (Escherichia coli [7]): > 50 µg/mL
- MIC (Penicillium italicum [8]; read-out: Minimum Inhibitory Concentration): 50 µg/mL (≈ 135 µM)

SMILES: O=C(CBr)Nc1cccc(OC(=O)NC2CCCCC2)c1 [Compound 5]
- MIC (Aspergillus niger [1]): > 50 µg/mL
- minimal effective concentration (Escherichia coli [2]): 50 µg/mL
- minimal effective concentration (Penicillium italicum [3]): 50 µg/mL
- MIC (Staphylococcus aureus [4]): 50 µg/mL (≈ 141 µM)

- MIC (Aspergillus niger [1]; malt broth, one week): 100 µg/mL (≈ 435 µM)
- MIC (Staphylococcus aureus [4]; nutrient broth, one week): 10 µg/mL (≈ 43.5 µM)
SMILES: O=C(CBr)Nc1cccc(O)c1 [Compound 1, 3'-hydroxybromoacetanilide]
- Zone of Biological Inhibition (radius) (Escherichia coli [9]): 2 mm
- Zone of Biological Inhibition (radius) (Escherichia coli [11]): 2 mm
- Zone of Biological Inhibition (radius) (Staphylococcus aureus [10]): 12-15 mm
- Zone of Biological Inhibition (radius) [12]: 0 mm
- Zone of Biological Inhibition (radius) (Staphylococcus aureus [13]): 3 mm
- Zone of Biological Inhibition (radius) [14]: 1 mm
- minimal effective concentration (Escherichia coli [2]; [15]): 10 µg/mL
- minimal effective concentration (Penicillium italicum [3]; [16]): 25 µg/mL

— patent US4081474A, “Sulfonyloxy bromoacetanilides and their utility as biocides” (Stauffer Chemical Company, priority 1976, dated 1978)
